Reference: publication doi:10.1101/2024.02.28.577416v1 (biorxiv, 2024)
Positions count from the first letter of the chain named.

Experiments:
SCO4122 [1] = target: T1, SCO4122 (Streptomyces coelicolor, UniProt Q9KYE8); experiment: SPR; format: binding
T1 sequence (Q9KYE8 1-182): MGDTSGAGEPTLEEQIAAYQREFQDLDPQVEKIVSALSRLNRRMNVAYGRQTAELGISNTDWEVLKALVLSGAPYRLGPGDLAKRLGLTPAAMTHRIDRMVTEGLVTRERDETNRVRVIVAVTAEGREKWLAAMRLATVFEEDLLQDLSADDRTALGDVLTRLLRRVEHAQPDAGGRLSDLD

SCO4122 [2] = target: T2, SCO4122 (Streptomyces coelicolor, UniProt Q9KYE8, M93L); experiment: SPR; format: binding
T2 sequence (Q9KYE8 1-182 M93L): T1 sequence (Q9KYE8 1-182) with M93L

| SMILES | Kd (SCO4122 [1]) | Kd (SCO4122 [2]) |
| --- | --- | --- |
| [H]/N=C(/N)N[C@H]1[C@H](O)[C@@H](O)[C@H](O[C@@H]2O[C@@H](C)[C@](O)(C=O)[C@H]2O[C@@H]2O[C@@H](CO)[C@H](O)[C@@H](O)[C@@H]2NC)[C@@H](N/C(N)=N\[H])[C@@H]1O [streptomycin] | 0.73 µM | 53.9 µM |
| CN(C)[C@@H]1C(=O)C(C(N)=O)=C(O)[C@@]2(O)C(=O)C3=C(O)c4c(O)cccc4[C@@](C)(O)[C@H]3C[C@@H]12 [tetracycline] | 2.68 µM | 2.43 µM |

Continued, in another order:

| Kd (SCO4122 [1]) | SMILES | Kd (SCO4122 [2]) |
| --- | --- | --- |
| 1.39 µM | CC[n+]1c(-c2ccccc2)c2cc(N)ccc2c2ccc(N)cc21 [EtBr] |  |
| 2000 µM | O=C(N[C@H](CO)[C@H](O)c1ccc([N+](=O)[O-])cc1)C(Cl)Cl [chloramphenicol] |  |
| 31 µM | O=C(O)c1cn(C2CC2)c2cc(N3CCNCC3)c(F)cc2c1=O [ciprofloxacin] |  |
